Our source for the inhibition in vivo values is US8232287B2, “Pyrimidyl indoline compound” (Daiichi Sankyo Company, Limited, priority 2007, dated 2012).

This assay concerns Mice C57/BL6J. Kind of assay: Oral glucose tolerance test (oGTT) using mice. The assay is classed as in vivo. Conditions: Mus musculus, 2 h; blood glucose AUC vs vehicle-administered group; fasted male C57/BL6J mice; 1 mg/ml suspension in 0.5% methylcellulose given orally 30 min before oral glucose load; plasma glucose at pre, 15, 30, 60, 120 min; read-out: Rate of decrease in AUC (%). The method, then: Oral Glucose Tolerance Test (oGTT) Using Mice
2.0 to 8.0 mg of a test compound was weighed and then placed in an agate mortar. While the compound was pulverized, a 0.5% methylcellulose solution was added thereto to prepare a 1 mg/ml suspension. Mice C57/BL6J (6- to 8-week-old male) were purchased from Charles River Laboratories Japan Inc. and raised in a cage until they became 9- to 13-week-old. The mice were fasted after 5 to 6 p.m. of the day before the test. On the test day, blood was collected from the tail vein, and the preceding prepared suspension was orally administered to each of the mice. Thirty minutes after administration, blood was further collected from the tail vein (plasma glucose level in this blood was used as a pre-value), and a 20 to 30% glucose solution was then orally administered thereto at a dose of 10 ml/kg for glucose load. After the glucose load, blood was further collected from the tail vein at time points 15, 30, 60, and 120 minutes. The collected blood was centrifuged to separate plasma. The pre-value and plasma glucose levels at 15, 30, 60, and 120 minutes after the glucose load were measured using Glucoroder GXT (Shino-Test Corp.), and the rate of decrease in blood glucose AUC (%) from a vehicle-administered group was calculated. To this vehicle-administered group, a 0.5% methylcellulose solution was administered instead of the suspension of the compound.
As to `C[S+]([O-])c1ccc2c(c1)CCN2c1cc(OC2CCN(C(=O)OCC3CC3)CC2)ncn1` (stereo not drawn) [Example 118, cyclopropylmethyl 4-({6-[5-(methylsulfinyl)indolin-1-yl]pyrimidin-4-yl}oxy)piperidine-1-carboxylate], the inhibition in vivo at 1000 µg/mL was 16%.
Then `CC(C)OC(=O)N1CC[C@H](Oc2cc(N3CCc4cc(S(C)(=O)=O)ccc43)ncn2)[C@H](F)C1` (relative stereo) [Example 117, isopropyl cis-3-fluoro-4-[6-(5-methanesulfonyl-2,3-dihydro-indol-1-yl)-pyrimidin-4-yloxy]-piperidine-1-carboxylate], with 27%; and `CS(=O)(=O)c1ccc2c(c1)CCN2c1cc(OC2CCN(C(=O)OCC3CC3)CC2)ncn1` [Example 44, cyclopropylmethyl 4-({6-[5-(methylsulfonyl)indolin-1-yl]pyrimidin-4-yl}oxy)piperidine-1-carboxylate], with 18%; and `C[S+]([O-])c1ccc2c(c1)CCN2c1cc(OC2CCN(C(=O)OCC(F)(F)F)CC2)ncn1` (stereo not drawn) [Example 116, 2,2,2-trifluoroethyl 4-({6-[5-(methylsulfinyl)indolin-1-yl]pyrimidin-4-yl}oxy)piperidine-1-carboxylate], with 17%.
Consider `CC(C)(C)OC(=O)N1CCC(Oc2cc(N3CCc4cc(S(C)(=O)=O)ccc43)ncn2)CC1` [Example 1, tert-butyl 4-({6-[5-(methylsulfonyl)indolin-1-yl]pyrimidin-4-yl}oxy)piperidine-1-carboxylate], for which the inhibition in vivo at 1000 µg/mL was determined as 28%.
In the case of `C[S+]([O-])c1ccc2c(c1)CCN2c1cc(OC2CCN(C(=O)OC(C)(C)C)CC2)ncn1` (stereo not drawn) [Example 80, tert-butyl 4-({6-[5-(methylsulfinyl)indolin-1-yl]pyrimidin-4-yl}oxy)piperidine-1-carboxylate] it was 19%; in that of `COc1c(OC2CCN(C(=O)OC(C)C)CC2)ncnc1N1CCc2cc(S(C)(=O)=O)ccc21` [Example 83, isopropyl 4-({5-methoxy-6-[5-(methylsulfonyl)indolin-1-yl]pyrimidin-4-yl}oxy)piperidine-1-carboxylate], 20%; in that of `CC(C)OC(=O)N1CCC(Oc2cc(N3CCc4cc(S(C)(=O)=O)ccc43)ncn2)CC1` [Example 2, isopropyl 4-({6-[5-(methylsulfonyl)indolin-1-yl]pyrimidin-4-yl}oxy)piperidine-1-carboxylate], 22%.
Then `CCS(=O)(=O)c1ccc2c(c1)CCN2c1cc(OC2CCN(C(=O)OC(C)C)CC2)ncn1` [Example 31, isopropyl 4-({6-[5-(ethylsulfonyl)indolin-1-yl]pyrimidin-4-yl}oxy)piperidine-1-carboxylate], with 20%; and `CCS(=O)(=O)c1ccc2c(c1)CCN2c1cc(OC2CCN(C(=O)OCC(C)C)CC2)ncn1` [Example 22, isobutyl 4-({6-[5-(ethylsulfonyl)indolin-1-yl]pyrimidin-4-yl}oxy)piperidine-1-carboxylate], with 21%; and `CC(C)(C)OC(=O)N1CCC(Oc2cc(N3CCc4cc(S(=O)(=O)CCF)ccc43)ncn2)CC1` [Example 85, tert-butyl 4-[(6-{5-[(2-fluoroethyl)sulfonyl]indolin-1-yl}pyrimidin-4-yl)oxy]piperidine-1-carboxylate], with 27%.
Then `CS(=O)(=O)c1ccc2c(c1)CCN2c1cc(OC2CCN(C(=O)OCC(F)(F)F)CC2)ncn1` [Example 104, 2,2,2-trifluoroethyl 4-({6-[5-(methylsulfonyl)indolin-1-yl]pyrimidin-4-yl}oxy)piperidine-1-carboxylate], with 10%.
Take `CS(=O)(=O)c1ccc2c(c1)CCN2c1cc(OC2CCN(C(=O)Oc3ccc(F)cc3)CC2)ncn1` [Example 93, 4-fluorophenyl 4-({6-[5-(methylsulfonyl)indolin-1-yl]pyrimidin-4-yl}oxy)piperidine-1-carboxylate]: the inhibition in vivo at 1000 µg/mL was 15%.
As for `CC(C)CC(=O)N1CCC(Oc2cc(N3CCc4cc(S(C)(=O)=O)ccc43)ncn2)CC1` [Example 92, 1-(6-{[1-(3-methylbutanoyl)piperidin-4-yl]oxy}pyrimidin-4-yl)-5-(methylsulfonyl)indoline], the inhibition in vivo at 1000 µg/mL was 16%.
In the case of `CCS(=O)(=O)c1ccc2c(c1)CCN2c1cc(OC2CCN(C(=O)OCC(F)F)CC2)ncn1` [Example 60, 2,2-difluoroethyl 4-({6-[5-(ethylsulfonyl)indolin-1-yl]pyrimidin-4-yl}oxy)piperidine-1-carboxylate] it was 22%.
